Source: US6710047B2, “Phthalazines with angiogenesis inhibiting activity” (Novartis AG, priority 1997, dated 2004)
Counter-ions that a name gives are not always drawn. Like-named read-outs stand apart in the source and are kept apart here.

Key:
[1] = target: T1, Flt-1 VEGF-receptor tyrosine kinase (Homo sapiens, UniProt P17948); assay: Test for activity against Flt-1 VEGF-receptor tyrosine kinase
T1 sequence (P17948 827-1158 limits assumed): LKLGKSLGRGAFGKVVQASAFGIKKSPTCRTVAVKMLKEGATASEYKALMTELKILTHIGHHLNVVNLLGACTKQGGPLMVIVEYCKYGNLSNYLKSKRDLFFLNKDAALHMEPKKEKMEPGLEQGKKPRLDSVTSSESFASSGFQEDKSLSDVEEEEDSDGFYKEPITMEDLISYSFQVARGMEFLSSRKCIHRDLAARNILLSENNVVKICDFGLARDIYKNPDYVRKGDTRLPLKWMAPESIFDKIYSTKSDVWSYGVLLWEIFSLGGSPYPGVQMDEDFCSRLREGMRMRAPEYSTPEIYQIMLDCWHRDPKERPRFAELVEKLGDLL
Description: Test for activity against VEGF-receptor tyrosine kinase. The test is conducted using Flt-1 VEGF-receptor tyrosine kinase. […] The reaction is then ended by the addition of 10 μl 0.25 M ethylenediaminetetraacetate (EDTA) pH 7. Using a multichannel dispenser (LAB SYSTEMS, USA), an aliquot of 20 μl is applied to a PVDF (=polyvinyl difluoride) Immobilon P membrane (Millipore, USA), incorporating a Millipore microtiter filter manifold, and connected to a vacuum.
The test is conducted using Flt-1 VEGF-receptor tyrosine kinase, as described hereinabove.

[2] = target: PDGF-receptor kinase; assay: Inhibition of PDGF-receptor kinase (method of Trinks et al.); type: biochemical
Description: An inhibitory effect can also be found especially on PDGF-receptor kinase, which is determined according to the method described by Trinks et al. (see J. Med. Chem. 37(7): 1015-27 [1994]). Inhibitory activity is shown here in the micromolar range using a compound of formula I (or an N-oxide thereof); […]

| SMILES | melting point | IC50 [1] | IC50 ([1]; kinase domain of Flt-1, poly(Glu,Tyr) 4:1, 8 μM [33P]-ATP, 15 minutes at room temperature) | IC50 [2] |
| --- | --- | --- | --- | --- |
| Cc1ccc(Nc2nnc(Cc3ccncc3)c3ccccc23)cc1 [Example 37, 1-(4-Methylanilino)-4-(4-pyridylmethyl)phthalazine] | 152 to 153 °C | 154 nM | – | – |
| c1ccc(COc2cccc(Nc3nnc(Cc4ccncc4)c4ccccc34)c2)cc1 [Example 9, 1-(3-Benzyloxyanilino)-4-(4-pyridylmethyl)phthalazine] | 142 to 143 °C | 970 nM | – | – |
| Clc1ccc(Oc2nnc(Cc3ccncc3)c3ccccc23)cc1 [Example 72B] | 207 to 208 °C | 284 nM | – | – |
| COc1ccc(Nc2nnc(Cc3ccncc3)c3ccccc23)cc1 [Example 8, 1-(4-Methoxyanilino)-4-(4-pyridylmethyl)phthalazine] | 223 to 224 °C | 330 nM | – | – |
| CCc1ccc(Nc2nnc(Cc3ccncc3)c3ccccc23)cc1 [Example 44A, 1-(4-Ethylanilino)-4-(4-pyridylmethyl)phthalazine] | 163 to 164 °C | 277 nM | – | – |
| Fc1ccc(Nc2nnc(Cc3ccncc3)c3ccccc23)cc1Cl [Example 42, 1-(3-Chloro-4-fluoroanilino)-4-(4-pyridylmethyl)phthalazine] | 185 to 187 °C | 211 nM | – | – |
| Clc1ccc(Nc2nnc(Cc3ccncc3)c3c2CCCC3)cc1 [Example 44H, 1-(4-Chloroanilino) 4-(4-pyridylmethyl)-5,6,7,8-tetrahydrophthalazine] | 181 to 183 °C | 11400 nM | – | – |
| FC(F)(F)c1ccc(Nc2nnc(Cc3ccncc3)c3ccccc23)cc1 [Example 16, 1-(4-Trifluoromethylanilino)-4-(4-pyridylmethyl)phthalazine] | 205 to 206 °C | 520 nM | – | – |
| Oc1cccc(Oc2nnc(Cc3ccncc3)c3ccccc23)c1 [Example 56, 1-(3-Hydroxyphenoxy)-4-(4-pyridylmethyl)phthalazine] | 206 to 207 °C | 1000 nM | – | – |
| CCOc1ccc(Nc2nnc(Cc3ccncc3)c3ccccc23)cc1 [Example 44E, 1-(4-Ethoxyanilino)-4-(4-pyridylmethyl)phthalazine] | 223 to 224 °C | 490 nM | – | – |
| Cc1cc(Cc2nnc(Nc3ccc(Cl)cc3)c3ccccc23)ccn1 [Example 44F, 1-(4-Chloroanilino)-4-[(2-methyl-4-pyridyl)methyl]phthalazine] | 158 to 159 °C | – | 624 nM | – |
| COc1ccc(Oc2nnc(Cc3ccncc3)c3ccccc23)cc1 [Example 72D] | 194 to 196 °C | 593 nM | – | – |
| Clc1ccc(Nc2nnc(Cc3ccncc3)c3ccccc23)cc1 [Example 1, 1-(4-Chloroanilino)-4-(4-pyridylmethyl)phthalazine dihydrochloride] | – | – | – | ~1000 nM |
| Cc1ccc(Nc2nnc(Cc3ccncc3)c3ccccc23)cc1C [Example 45] | 180 to 181 °C | 345 nM | – | – |
